US20180325872A1, “COMPOUNDS FOR TREATMENT OF CANCER” (UNIVERSITY OF TENNESSEE RESEARCH FOUNDATION, priority 2013, published 2018)
Where two headings read alike, the source gives them in different places.

Columns and labels:
[1] = system: melanoma nodules in the lungs; test: Melanoma lung metastasis model in mice; type: in vivo, mouse; settings: i.p. injection 5 days per week for 2 weeks (n=8 per group)
Text: Panel A: Representative photos of lungs with melanoma nodules (black dots, n=8 per group). Treatment was i.p. injection 5 days per week for 2 weeks. Panel B: Number of melanoma nodules on each lung. Points: individual nodule number; long line in the middle: mean; short line on the top and bottom: 95% confidence intervals ** and ##: p<0.01. Panel C: Mouse body weight changes during the experiment. Points: means; bars: SD. Control: vehicle solution only.

Bovine brain tubulin [2] = target: T1, Bovine brain tubulin (Bos taurus, UniProt P81947+Q6B856); test: In vitro microtubule polymerization assay (Example 6); type: biochemical; settings: absorbance at 340 nm, 15 min; for inhibition of tubulin polymerization: 10 μM
T1 construct: purchased Cytoskeleton, Denver, Colo; host or cells: brain tissue
Method: The absorbance at 340 nm was monitored every 1 min for 15 min by the SYNERGY 4 Microplate Reader (Bio-Tek Instruments, Winooski, Vt.). The spectrophotometer was set at 37° C. for tubulin polymerization.

B16-F1 melanoma cells = test: B16-F1 melanoma colony formation assay in soft agar; type: cell-based, mouse; settings: 14 days
Method: B16-F1 melanoma cells were plated at a colony-forming density (2000 cells per well on six-well plates) on top of 0.8% base agar. Cells were grown in 0.4% agar together with DMEM medium supplemented with fetal bovine serum and an antibiotic-antimycotic solution at 37° C. in an atmosphere of 95% air and 5% CO2. […] Compounds were added to the media from 1 mM DMSO stock solutions, and a corresponding dilution of DMSO was used as control. Cells were grown for 14 days. Plates were photographed, and the number of colonies was measured by Artek 880 Automated Colony Counter (Artek Systems Corporation, Farmingdale, N.Y.).

A375RF21 = test: In vitro combination assay (combination index) in A375RF21; type: cell-based, human; settings: combination with vemurafenib
Text: (§3) Cell proliferation viability was investigated using MTS or SRB assay as described previously. An in vitro study of the combination of vemurafenib and the tubulin inhibitors was designed and conducted using CalcuSyn software (Biosoft, Ferguson, Mo.) with five duplicates of each set of treatment. Drug concentrations were selected based on the IC50 value of each drug tested from a pilot study.

[3] = system: A375 human melanoma xenograft; settings: 12da 25 mg/kg; Wang Z et al., Pharm. Res. 29(11); cited from earlier work
NCl/ADR-RES = test: In vitro growth inhibition, NCI/ADR-RES; type: cell-based; settings: Homo sapiens, Table 9, read-out: IC50 ± SEM (nM) NCl/ADR-RES
OVCAR-8 = test: In vitro growth inhibition, OVCAR-8; type: cell-based; settings: Homo sapiens, OVCAR-8; Table 9; read-out: IC50 ± SEM (nM) OVCAR-8
[4] = system: pAKT/tAKT and pERK in A375RF21 cells; test: Western blot analysis in A375RF21; type: cell-based, human
Method: (§1) At the indicated time treatment, human melanoma A375RF21, MDA-MB-435 or WM164 cells were collected to investigate relevant cascade protein or apoptosis markers by western blots. Total protein was extracted by lysing cells with RIPA buffer (Sigma-Aldrich, St. Louis, Mo.) containing phosphatase-proteinase inhibitor cocktail (Sigma-Aldrich, St. Louis, Mo.). General protein concentration was then determined by BCA method using kit (Sigma-Aldrich, St. Louis, Mo.). The cell lysates were diluted to equal general protein concentration using Laemmli loading buffer (Bio-Rad, Hercules, Calif.) and boiled for 5 min to denature the protein. Then group samples containing 10 μg general proteins were loaded to each well of 4-15% Tris-HCl pre-cast polyacrylamide gel (Bio-Rad, Hercules, Calif.) for electrophoresis and subsequently transferred to 0.2 μm nitrocellulose membrane (Bio-Rad, Hercules, Calif.). […] Target proteins were detected by incubating with 1× LumiGLO® reagent (Cell Signaling, #7003) for one minute and exposed to x-ray film. The films were scanned with grey scale and lane intensities were quantified with the ImageJ software (NIH, Bethesda, Md., USA).

pAKT/tAKT in WM164 cells = test: Western blot analysis in WM164; type: cell-based, human; settings: WM164, 48 h
Method: as §1

A375RF21 cells [5] = test: Cell cycle analysis (flow cytometry) in A375RF21; type: cell-based, human; settings: for G2/M arrest: A375RF21, 20 nM
Method: (§2) Flow cytometry analysis was performed as described before (Wang Z, Chen J, Wang J, et al. “Novel tubulin polymerization inhibitors overcome multidrug resistance and reduce melanoma lung metastasis.” Pharm. Res. (2012) 29: 3040-3052). To determine cell cycle distributions in the G2 and M phases (FIG. 23), cells were harvested with trypsin, stained using antiphospho-histone H3-AlexaFluor® 488 antibody on ice for one hour in the dark, followed by stained using PI/RNase solution for 30 minutes at room temperature in the dark per the manufacturer's instructions (#FCCH025103, EMD Millipore Corporation, Ballerica, Mass.). Data were further processed and graphs were prepared using the Modfit 2.0 program (Verity Software House, Topsham, Me.).

[6] = system: pAKT/tAKT in MDA-MB-435 cells; test: Western blot analysis in MDA-MB-435; type: cell-based, human; settings: MDA-MB-435, 48 h
Method: as §1

[7] = system: three melanoma cell lines and four human prostate cancer cell lines; test: Antiproliferative activity, average over melanoma and prostate cancer cell lines; type: cell-based; settings: for IC50: Homo sapiens, discussion of Tables 8-10
[8] = system: A375 human melanoma xenograft; test: A375 human melanoma xenograft in SHO nude mice; type: in vivo; settings: 12fb 25 mg/kg, 31 days
Method: SHO nude mice bearing an A375 human melanoma xenograft (n=5 per group). Each mouse received 2.5×10^6 cells by s.c. injection into the flank. 30 μL i.p. daily treatments were started when the tumor size reached ˜150 mm^3. Control, vehicle solution only; points, means; bars, SD.
In vivo evaluation of efficacy. […] The cell suspension (100 μL) was injected subcutaneously in the right dorsal flank of each mouse. When tumor size reached about 100-150 mm^3, about 7 days after cell inoculation, all mice bearing tumors were divided into control and treatment groups based on tumor size (n=5 per group). Each group had similar average tumor size. Mice in control groups (negative control) were injected intraperitoneally with 50 μL vehicle solution only or DTIC at 60 mg/kg (positive control) once daily. Tumor volume was measured every 2 days with a traceable electronic digital caliper (Fisher Scientific, Inc., Pittsburgh, Pa.) and calculated using the formula a×b^2×0.5, where a and b represented the larger and smaller diameters, respectively. Tumor volume was expressed in cubic millimeters. Data were expressed as mean±SE for each group and plotted as a function of time. […] Animal activity and average body weight of each group were monitored during the entire experiment period to assess compound toxicity. […]

A375 = test: Cell culture cytotoxicity (SRB) assay, A375; type: cell-based, human; settings: Table 9, SRB, 48 h; read-out: IC50 ± SEM (nM) A375
Du 145 = test: Cell culture cytotoxicity (SRB) assay, Du 145; settings: read-out: inhibitory effects DU145; Table 10B, anti-proliferation
PC-3/TxR tumors = settings: PC-3/TxR xenograft, day 1 and 9; for Tumor size, End: end point day 19
PC-3 = test: Apoptosis (cytoplasmic DNA-histone complex formation) in PC-3; type: cell-based, human; settings: PC-3, 0.8 to 600 nmol/L, 24 h
A375RF21 cells [9] = test: Apoptosis detection (Annexin V-FITC / propidium iodide); settings: A375RF21, 48 h, Annexin V / propidium iodide flow cytometry
PC-3/TxR = test: Apoptosis (cytoplasmic DNA-histone complex formation) in PC-3/TxR; type: cell-based, human; settings: 0.8 to 600 nmol/L, 24 h
PC-3 tumors = test: PC-3 xenograft in nude mice; settings: day 1 and 9, end point day 19
A375 cells [10] = test: Cell cycle analysis (flow cytometry) in A375; type: cell-based, human
Method: as §2

A375RF21 cells [11] = test: Cell proliferation MTS assay, vemurafenib-resistant A375RF21
Text: as §3

A375 cells [12] = test: Cell proliferation MTS assay, parental A375; settings: Homo sapiens, A-375, read-out: IC50 for proliferation inhibition
Text: as §3

Bovine brain tubulin [13] = test: HTS-tubulin polymerization assay (Example 1); settings: 20 μM, purified-protein assay

T1 sequence (P81947 whole entry): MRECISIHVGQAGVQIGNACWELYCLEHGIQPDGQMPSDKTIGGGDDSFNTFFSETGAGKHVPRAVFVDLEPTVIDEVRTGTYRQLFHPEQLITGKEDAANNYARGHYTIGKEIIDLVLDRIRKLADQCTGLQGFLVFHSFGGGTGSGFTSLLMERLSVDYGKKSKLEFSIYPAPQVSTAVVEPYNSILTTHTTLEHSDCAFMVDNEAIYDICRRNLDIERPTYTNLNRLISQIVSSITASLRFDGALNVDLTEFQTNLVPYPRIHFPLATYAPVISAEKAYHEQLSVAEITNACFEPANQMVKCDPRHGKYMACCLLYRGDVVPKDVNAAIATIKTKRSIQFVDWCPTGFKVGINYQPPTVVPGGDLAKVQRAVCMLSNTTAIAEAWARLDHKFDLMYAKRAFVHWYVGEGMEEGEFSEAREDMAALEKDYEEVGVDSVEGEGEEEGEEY
T1 sequence (Q6B856 whole entry): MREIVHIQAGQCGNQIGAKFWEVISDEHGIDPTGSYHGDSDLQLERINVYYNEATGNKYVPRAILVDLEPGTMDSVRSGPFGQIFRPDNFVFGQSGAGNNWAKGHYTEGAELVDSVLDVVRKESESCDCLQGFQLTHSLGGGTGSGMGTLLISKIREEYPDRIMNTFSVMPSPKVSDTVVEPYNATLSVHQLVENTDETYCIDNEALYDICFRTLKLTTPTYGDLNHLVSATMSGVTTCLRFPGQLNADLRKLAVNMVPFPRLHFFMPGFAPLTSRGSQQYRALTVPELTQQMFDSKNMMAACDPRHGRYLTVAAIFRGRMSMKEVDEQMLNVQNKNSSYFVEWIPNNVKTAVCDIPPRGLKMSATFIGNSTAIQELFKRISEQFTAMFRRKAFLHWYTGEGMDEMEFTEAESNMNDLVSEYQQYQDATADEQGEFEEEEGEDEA

COc1ccc(-c2nc(C(=O)c3ccc(F)cc3)c[nH]2)cc1 [12cb, (4-fluorophenyl)(2-(4-methoxyphenyl)-1H-imidazol-4-yl)methanone]
inhibition of metastasis of melanoma to the lungs [1]: inhibition
inhibition of tubulin polymerization (Bovine brain tubulin [2]): inhibited tubulin polymerization
inhibition at 10 µM (Bovine brain tubulin [2]): ~80%
inhibition of colony formation (B16-F1 melanoma cells; 20 nM): effectively inhibited

COc1cc(C(=O)c2c[nH]c(-c3ccc(C)cc3)n2)cc(OC)c1OC [12da, (2-(p-tolyl)-1H-imidazol-4-yl)(3,4,5-trimethoxyphenyl)methanone]
inhibition of metastasis of melanoma to the lungs [1]: inhibition
calculated CI values, all concentrations tested (A375RF21): 0.53-0.70
suppression of parental A375 melanoma tumor growth in vivo [3]: effective
IC50 (NCl/ADR-RES): 19 nM
IC50 (OVCAR-8): 47 nM
effect on pERK or total ERK level ([4]; A375RF21, 48 h incubation): no obvious effect
inhibition of tubulin polymerization (Bovine brain tubulin [2]): inhibited tubulin polymerization
pAKT/tAKT inhibition (pAKT/tAKT in WM164 cells): strong dose-dependent pAKT/tAKT inhibition effects
G2/M arrest (A375RF21 cells [5]; 24 h): induced G2/M arrest
inhibition of colony formation (B16-F1 melanoma cells; 20 nM): effectively inhibited
pAKT/tAKT inhibition [6]: strong dose-dependent pAKT/tAKT inhibition effects

Cc1ccc(-c2nc(C(=O)c3ccc(F)cc3)c[nH]2)cc1 [12db, (4-fluorophenyl)(2-(p-tolyl)-1H-imidazol-4-yl)methanone]
inhibition of tubulin polymerization (Bovine brain tubulin [2]): inhibited tubulin polymerization

COc1cc(C(=O)c2c[nH]c(-c3cc(OC)c(OC)c(OC)c3)n2)cc(OC)c1OC [12ea, (3,4,5-trimethoxyphenyl)(2-(3,4,5-trimethoxyphenyl)-1H-imidazol-4-yl)methanone]
IC50 [7]: 1000 to 50000 nM

O=C(c1ccc(F)cc1)c1c[nH]c(-c2ccc(Cl)cc2)n1 [12fb, (2-(4-chlorophenyl)-1H-imidazol-4-yl)(4-fluorophenyl)methanone]
inhibition of metastasis of melanoma to the lungs [1]: inhibition
inhibition of colony formation (B16-F1 melanoma cells; 100 nM): effective inhibition
tolerability [8]: well tolerated dose

O=C(c1ccc(F)cc1)c1c[nH]c(-c2ccccc2C(F)(F)F)n1 [12ib, (4-fluorophenyl)(2-(2-(trifluoromethyl)phenyl)-1H-imidazol-4-yl)methanone]
IC50 [7]: 1000 to 50000 nM

O=C(c1ccc(F)cc1)c1c[nH]c(-c2ccc(OCc3ccccc3)cc2)n1 [12jb, (2-(4-(benzyloxy)phenyl)-1H-imidazol-4-yl)(4-fluorophenyl)methanone]
fold increase in activity compared with the para-hydroxy compound 12kb ([7]; discussion of Table 9): 440 fold

COc1cc(C(=O)c2c[nH]c(-c3ccc(O)cc3)n2)cc(O)c1OC [12kc]
IC50 (A375): 10000 nM

COc1ccc(C(=O)c2nc(-c3cc(OC)c(OC)c(OC)c3)c[nH]2)cc1 [70y]
IC50 (Du 145): > 50000 nM

CC(=O)O[C@@]12CO[C@@H]1C[C@H](O)[C@@]1(C)C(=O)[C@H](O)C3=C(C)[C@@H](OC(=O)[C@H](O)[C@@H](NC(=O)OC(C)(C)C)c4ccccc4)C[C@@](O)([C@@H](OC(=O)c4ccccc4)[C@H]21)C3(C)C [Docetaxel, reference compound]
Tumor size, End (PC-3/TxR tumors; IV 10 mpk): 1774 ± 183 mm^3
Tumor size, Start (PC-3/TxR tumors; IV 10 mpk): 143 ± 20 mm^3
Tumor size, End (PC-3/TxR tumors; IV 20 mpk): 999 ± 905 mm^3
Tumor size, Start (PC-3/TxR tumors; IV 20 mpk): 170 ± 86 mm^3
induction of cell apoptosis (DNA-histone complexes) (PC-3): highly potent to induce apoptosis
cell apoptosis or death (sum of Q1, Q2 and Q4) (A375RF21 cells [9]): 6.4±3.0%
induction of cell apoptosis (DNA-histone complexes) (PC-3/TxR): weaker
Body weight, End (PC-3 tumors; IV 10 mpk): 24 ± 2 g
Body weight, End (PC-3 tumors; IV 20 mpk): 24 ± 3 g
G2/M arrest (A375RF21 cells [5]; 24 h): induced G2/M arrest

CCCS(=O)(=O)Nc1ccc(F)c(C(=O)c2c[nH]c3ncc(-c4ccc(Cl)cc4)cc23)c1F [Vemurafenib]
cell apoptosis or death (sum of Q1, Q2 and Q4) (A375RF21 cells [9]): 11.9±3.5%
level of pAKT relative to tAKT ([4]; A375RF21, 48 h, quantified lane density): 70%
G0/G1 arrest (A375 cells [10]; A375, 1 μM, 24 h): effectively arrested
concentration needed to produce G0/G1 cell cycle arrest (A375 cells [10]; parental A375, single agent): less than 1 μM
IC50 (A375RF21 cells [11]; Homo sapiens, read-out: IC50 for proliferation inhibition): 28900 ± 600 nM
fold increase of IC50 in A375RF21 versus parental A375 (A375RF21 cells [11]; MTS assay): over 50 fold
G0/G1 arrest (A375RF21 cells [5]; A375RF21, 1 μM, 24 h): could not arrest
concentration needed to produce G0/G1 cell cycle arrest (A375RF21 cells [5]; resistant A375RF21, single agent): ≥ 30 µM
IC50 (A375 cells [12]): 570 ± 30 nM
effect on tubulin polymerization (Bovine brain tubulin [13]): did not significantly influence tubulin polymerization
effect on tubulin polymerization (Bovine brain tubulin [13]; listed as vemurafenib): did not have any effect on tubulin polymerization
